# Experimental data from PMC11243066, “Synthesis and Biological Evaluation of Novel Biased Mu-Opioid Receptor Agonists” (Molecules, 2024).
# Key:
# [1] = target: T1, human μOR β-arrestin2 pathway (Homo sapiens, UniProt P35372); experiment: cell-based; format: cell-based; conditions: U2OS/human μOR β-arrestin cells, n = 3
# T1 construct: β-galactosidase enzyme fragment (PathHunter complementation tag); host or cells: U2OS (U2OS/human μOR β-arrestin cells)
# Method: In this assay, optical signal values were detected employing the PathHunter® (DiscoverX, Shanghai, China) Detection Kit assay method. The agonistic activity of tested compounds on the human μOR β-arrestin2 pathway was quantified using a β-galactosidase-based enzyme fragment complementation assay. In brief, tested compound dilutions (with final concentrations of 100 μM, 50 μM, 10 μM, 1 μM, 500 nM, 100 nM, 50 nM, 10 nM, 1 nM, and 100 pM) were produced in saline or DMSO in triplicate. Next, 100 nL of the tested compound solution per well was dispensed into a 384-well cell culture plate. The U2OS/human μOR β-arrestin cells were resuspended in Opti-MEM and counted to achieve a cell density of 4000 cells per well, and 20 μL from each well was seeded into the 384-well cell culture plate. The plate was subsequently incubated at 37 °C in the dark for 120 min. Post-incubation, the cell plate was equilibrated to room temperature for 10–20 min, and 5 μL of the detection reagent were added to each well. Following a 60 min incubation at 25 °C, chemiluminescent readings were obtained using the envision system.
# The cells were maintained at 37 °C with 5% CO2 in McCoy’s 5a medium with supplements and cultivated utilizing precise techniques to ensure accurate, reproducible results. Cells were gently dissociated for assays to maintain receptor integrity and resuspended in Opti-MEM® for compatibility with the PathHunter® (DiscoverX, Shanghai, China). Detection Kit. Cell density was adjusted to 4000 cells per well in a 384-well plate, to ensure that a uniform monolayer was established for the β-galactosidase assay. After seeding and incubation in the dark at 37 °C to facilitate cell attachment, the plates were equilibrated to room temperature prior to compound treatment. Serial dilutions of the compounds were assessed for pharmacological effect. A detection reagent was then added to measure β-galactosidase activity as indicative of μ-opioid receptor and β-arrestin2 interaction. Following reagent incubation, chemiluminescence was quantified, providing quantitative data on compound agonistic activity. Throughout, meticulous aseptic technique and strict adherence to protocols were imperative to ensure the integrity of the pharmacological data derived from these studies.
# [2] = tested on: mice; experiment: Respiratory depression (blood pO2, blood gas analyzer); conditions: single i.v. dose 20 mg/kg (morphine 4 mg/kg), 5-40 min
# Method: (§2) The mice were group-housed in a controlled temperature environment and subjected to a 12 h light/dark cycle (lights on from 07:00 to 19:00). Food and water were provided ad libitum. All animal procedures were conducted in accordance with the policies and recommendations of the International Association for the Study of Pain and the National Health and Animal Welfare Committee of the Beijing Institute of Pharmacology, with the aim of minimizing the number of animals used and their suffering.
# [3] = tested on: mice; experiment: Acetic acid-induced writhing test; format: in vivo, CD-1 mice; conditions: 20 mg/kg i.v. tail vein
# Method: (§1) Food and water were provided ad libitum.
# The acetic acid-induced writhing test was performed as described previously. In brief, after pretreatment with the test compound at a dose of 20 mg/kg via intravenous tail vein injection, 1% (v/v) glacial acetic acid was administered intraperitoneally (i.p.) at a dose of 10 mL/kg. Subsequently, the number of writhing responses over a 20 min period was recorded. The antinociception rate was calculated as the percentage of maximal possible effect (%MPE), where %MPE = 100 × (NWV − NWT)/NWV. NWV and NWT represent the average number of writhing responses of the vehicle and test groups, respectively.
# [4] = target: T2, human μ-opioid receptor (Homo sapiens, UniProt P35372); experiment: cell-based; format: cell-based; conditions: CHO/μOR cells, n = 3
# T2 construct: expressed in transfected cells; host or cells: CHO (CHO/μOR cells)
# Method: The inhibition assay was performed as described previously. In brief, tested compound dilutions (with final concentrations of 100 µM, 50 µM, 10 µM, 1 µM, 500 nM, 100 nM, 50 nM, 10 nM, 1 nM, and 100 pM) were produced in saline or DMSO in triplicate. CHO/μOR cells were suspended in the assay buffer and counted, maintaining a cell density of 2000 cells per well, with 5 µL from each well seeded into a 384-well plate. Subsequently, 5 µL of the tested compound solution per well was dispensed into the plate, which was then placed in a 25 °C incubator and incubated in the dark for 30 min. Next, 10 µL of cAMP standard working solution was added to the empty wells of the plate, followed by the addition of 5 µL of Eu-cAMP and Anti-cAMP per well. The plate was subsequently placed back in a 25 °C incubator and further incubated in the dark for 1 h.
# CHO cells expressing the human μ-opioid receptor were cultivated for the assessment of compound effects. […] Cells collected during the exponential phase of growth were dissociated without enzymes to preserve receptor integrity, resuspended in assay buffer, and counted to achieve a uniform concentration. Cell density was adjusted to 2000 cells per well in a 384-well plate, promoting uniform distribution and optimal receptor presence. Post-seeding at 25 °C in darkness facilitated cell adherence and stabilization prior to compound introduction. Compounds were added in serial dilutions, with meticulous dispensing techniques ensuring dose uniformity. Following a 1 h incubation at 25 °C, TR-FRET reagents were applied to measure cAMP levels, indicative of μOR activity. The Envision system recorded these levels, quantifying compound inhibitory effects. Meticulous aseptic techniques and vigilant monitoring were imperative throughout to guarantee data precision from the assay.
# [5] = tested on: mice; experiment: Hot-water tail withdrawal test; format: in vivo, CD-1 mice; conditions: 20 mg/kg i.v. tail vein, 15 min post administration
# Method: as §1
# The hot-water tail withdrawal test was performed as described previously. In brief, the hot-water tail withdrawal test was conducted using a water bath maintained at 55 ± 0.5 °C. The distal 3 cm section of the mouse’s tail was immersed perpendicularly into the hot water. The duration for which the tail remained in the water was recorded as the initial tail withdrawal latency (TWL0). […] Following the administration of a single dose of the test compound (20 mg/kg, i.v.) or vehicle, the subsequent tail withdrawal latency (TWL) was measured at various time intervals (15, 30, 45, 60, and 90 min). To prevent potential tissue damage, a maximum cutoff latency of 16 s was enforced. Antinociception was quantified using the percentage of maximal possible effect (%MPE), calculated as %MPE = 100 × (TWL − TWL0)/(16 − TWL0).
# [6] = tested on: mice; experiment: Physical dependence (naloxone-precipitated withdrawal jumping); conditions: i.v. once daily for 5 days, PZM21 and 6a 20 mg/kg, morphine 2 mg/kg, jumps over 20 min
# Method: as §2
# [7] = tested on: mice; experiment: Formalin paw-licking test; format: in vivo, CD-1 mice; conditions: 20 mg/kg i.v. tail vein, Phase II
# Method: as §1
# The formalin injection assay was performed as described previously. […] After 15 min, 30 µL of a 2.7% formalin solution was administered into the right hind paw of each mouse. Then, the mice were put into the cage and their behaviors were observed. The antinociception rate was quantified as the percentage of maximal possible effect (%MPE), calculated as %MPE = 100 × (PLTV − PLTT)/PLTV; PLTV and PLTT represent the average paw-licking duration during Phase II for the vehicle and test groups, respectively.
# T1 sequence (P35372 whole entry, the tested form may be a part): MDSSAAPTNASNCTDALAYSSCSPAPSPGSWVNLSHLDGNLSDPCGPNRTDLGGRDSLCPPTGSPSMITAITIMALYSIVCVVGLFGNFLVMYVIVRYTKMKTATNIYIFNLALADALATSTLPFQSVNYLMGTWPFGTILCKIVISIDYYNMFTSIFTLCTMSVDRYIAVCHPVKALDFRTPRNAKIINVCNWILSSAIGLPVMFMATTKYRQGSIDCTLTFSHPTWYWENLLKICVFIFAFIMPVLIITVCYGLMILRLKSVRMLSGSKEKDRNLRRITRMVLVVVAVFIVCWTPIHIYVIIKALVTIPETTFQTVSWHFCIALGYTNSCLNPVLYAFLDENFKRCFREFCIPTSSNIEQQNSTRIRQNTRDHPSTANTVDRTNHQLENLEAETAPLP
# T2 sequence (P35372 whole entry): as the sequence (P35372 whole entry, the tested form may be a part) above
structure (smiles),measurement,setting,value
"CN(C)[C@H](CNC(=O)NCc1ccccc1)Cc1cccc2ccccc12 [6a, (S)-1-benzyl-3-(2-(dimethylamino)-3-(naphthalen-1-yl)propyl) urea]",Emax,"[1]; at the concentration printed in parentheses in the cell, read-out: Max Effect ± SEM (%), µOR β-arrestin recruitment assay",0.38 ± 0.21%
same,EC50,"[1]; ""-"" = no measurable activity, read-out: EC50 (nM) (95% CI), µOR β-arrestin recruitment assay",> 100000 nM
same,respiratory depression: partial pressure of oxygen in blood vs vehicle,[2],does not induce acute respiratory depression
same,"analgesia rate (%MPE), acetic acid-induced writhing",[3],exceeding 97%
same,EC50,"[4]; cAMP inhibition, ""-"" = no measurable activity, read-out: EC50 (nM) (95% CI), µOR-Gi/o activation assay",10.8 nM
same,Emax,"[4]; at the concentration printed in parentheses in the cell, read-out: Max Effect ± SEM (%), µOR-Gi/o activation assay",51.9 ± 1.06%
same,"pain inhibition rate (%MPE), hot-water tail-withdrawal test",[5],50.19%
same,physical dependence: jumping after naloxone-precipitated withdrawal vs vehicle,[6],does not induce physical dependence or withdrawal symptoms
same,"antinociceptive efficacy (%MPE), formalin-induced paw licking, second phase",[7],73.80%
